Key:
SK-MEL-28 = experiment: Cytotoxicity against human SK-MEL-28 cells by SRB assay; format: functional
A498 = experiment: Cytotoxicity against human A498 cells by SRB assay; format: functional
MCF7 = experiment: Cytotoxicity against human MCF7 cells by SRB assay; format: functional
[1] = Cytotoxicity against human breast cancer cells by SRB assay; format: functional; conditions: Cancer cell lines
UACC-257 = experiment: Cytotoxicity against human UACC257 cells by SRB assay; format: functional
SN12C = experiment: Cytotoxicity against human SN12C cells by SRB assay; format: functional
CAKI-1 = experiment: Cytotoxicity against human Caki1 cells by SRB assay; format: functional
NCI-H23 = experiment: Cytotoxicity against human NCI-H23 cells by SRB assay; format: functional
[2] = Cytotoxicity against human prostate cancer cells by SRB assay; format: functional; conditions: Cancer cell lines
[3] = Cytotoxicity against human HL60(TB) cells by SRB assay; format: functional, HL-60(TB); conditions: HL-60
HCT-116 = experiment: Cytotoxicity against human HCT116 cells by SRB assay; format: functional
T47D = experiment: Cytotoxicity against human T47D cells by SRB assay; format: functional
Leukemia cell = experiment: Cytotoxicity against human Leukemia cells by SRB assay; format: functional
UO-31 = experiment: Cytotoxicity against human UO31 cells by SRB assay; format: functional
SNB-19 = experiment: Cytotoxicity against human SNB19 cells by SRB assay; format: functional
HOP-92 = experiment: Cytotoxicity against human HOP92 cells by SRB assay; format: functional
HCC 2998 = experiment: Cytotoxicity against human HCC2998 cells by SRB assay; format: functional
Malme-3M = experiment: Cytotoxicity against human MALME-3M cells by SRB assay; format: functional
OVCAR-5 = experiment: Cytotoxicity against human OVCAR5 cells by SRB assay; format: functional
U-251 = experiment: Cytotoxicity against human U251 cells by SRB assay; format: functional
SK-MEL-2 = experiment: Cytotoxicity against human SK-MEL-2 cells by SRB assay; format: functional
HOP-62 = experiment: Cytotoxicity against human HOP62 cells by SRB assay; format: functional
NCI-H226 = experiment: Cytotoxicity against human NCI-H226 cells by SRB assay; format: functional
[4] = Cytotoxicity against human CNS cancer cells by SRB assay; format: functional; conditions: Cancer cell lines
MDA-MB-231 = experiment: Cytotoxicity against human MDA-MB-231 cells by SRB assay; format: functional
M14 = experiment: Cytotoxicity against human M14 cells by SRB assay; format: functional
IGROV-1 = experiment: Cytotoxicity against human IGROV1 cells by SRB assay; format: functional
SF-268 = experiment: Cytotoxicity against human SF268 cells by SRB assay; format: functional
UACC-62 = experiment: Cytotoxicity against human UACC62 cells by SRB assay; format: functional
MOLT-4 = experiment: Cytotoxicity against human MOLT4 cells by SRB assay; format: functional
LOX IMVI = experiment: Cytotoxicity against human LOXIMVI cells by SRB assay; format: functional
[5] = Cytotoxicity against human Colon cancer cells by SRB assay; format: functional; conditions: Cancer cell lines
SR = experiment: Cytotoxicity against human SR cells by SRB assay; format: functional
OVCAR-4 = experiment: Cytotoxicity against human OVCAR4 cells by SRB assay; format: functional
OVCAR-8 = experiment: Cytotoxicity against human OVCAR8 cells by SRB assay; format: functional

Which results are given for `CC(=O)OC[C@H]1O[C@@H](O[C@@H]2C[C@H]3C(C)(C)[C@H](OC(C)=O)CC[C@]3(C)[C@H]3CC[C@@]45C[C@H](O)C[C@H](C)[C@@H]4CC=C5[C@@]32C)[C@H](O)[C@@H](O)[C@@H]1O`?
GI50 (SK-MEL-28): 8.32 µM; GI50 (A498): 14.1 µM; GI50 (MCF7): 4.47 µM; TGI [1]: 17.9 µM; GI50 (UACC-257): 3.39 µM; GI50 (SN12C): 3.98 µM; GI50 (CAKI-1): 9.55 µM; GI50 (NCI-H23): 3.89 µM; TGI [2]: 16.7 µM; GI50 [3]: 2.09 µM; GI50 (HCT-116): 1.78 µM; TGI (HCT-116): 3.5 µM; GI50 (T47D): 4.37 µM; TGI (Leukemia cell): 7 µM; GI50 (UO-31): 14.8 µM; GI50 (SNB-19): 3.89 µM; GI50 (HOP-92): 4.9 µM; GI50 (HCC 2998): 2.09 µM; TGI (HCC 2998): 3.8 µM; GI50 (Malme-3M): 9.33 µM; GI50 (OVCAR-5): 2.34 µM; GI50 (U-251): 3.39 µM; GI50 (SK-MEL-2): 2.45 µM; GI50 (HOP-62): 11.2 µM; GI50 (NCI-H226): 4.9 µM; TGI [4]: 15 µM; GI50 (MDA-MB-231): 2.04 µM; GI50 (M14): 3.89 µM; GI50 (IGROV-1): 3.16 µM; GI50 (SF-268): 4.07 µM; GI50 (UACC-62): 5.25 µM; GI50 (MOLT-4): 2.14 µM; GI50 (LOX IMVI): 1.82 µM; TGI [5]: 8.8 µM; GI50 (SR): 1.82 µM; GI50 (OVCAR-4): 4.37 µM; GI50 (OVCAR-8): 4.47 µM
